Reference: patent US20250195510A1, “NOVEL METHODS” (priority 2022, published 2025)

Experiments:
[1] = tested on: Serum cytokine concentration; test: Serum cytokine protein (Multiplex MSD) after acute restraint stress; format: in vivo, mouse; details: restraint stress 2 h + Luma 3 mg/kg IP
Experimental: Multiplex Assays. In mouse serum, protein levels of IL-1b, IL-6, IL-10 and TNF-alpha are measured using a V-Plex Meso Scale Discovery (MSD) Multiplex spot assay Mouse Neuroinflammation 1 panel (Meso Scale Diagnostics, Rockville, MD). All samples are run in duplicates or triplicates according to manufacturer instructions and analyzed with MSD Discovery Workbench software (Meso Scale Diagnostics).
(§1) Restraint Stress Protocol.
Control mice receive vehicle treatment and are returned to their home cage before sample collection. Protein concentration is measured using the Multiplex MSD assay V-Plex technology, normalized to the control group. Results are expressed in pg/mL.

Corticosterone = test: Serum corticosterone (ELISA) after acute restraint stress; format: in vivo, mouse; details: restraint stress 2 h + Luma 3 mg/kg IP; control 22.65, stressed 238.5
Experimental: as §1
Using similar procedures as described above, serum corticosterone levels and hippocampal Cldn5 mRNA expression are measured as well (corticosterone is measured using a commercial ELISA kit).

Sprague-Dawley rats = test: Female urine sniffing test (FUST), LPS-induced anhedonia; format: in vivo, rat; details: LPS 1 mg/kg SC
Source text: All other reagents are obtained in the highest purity available from Sigma-Aldrich (St. Louis, MO) unless otherwise noted. […] Sigma-Aldrich, ref #0127: B8) diluted in 0.9% injectable saline while control group animals receive injections of all vehicles matching the experimental conditions. […] Behavioral Evaluation. […] Reward Sniffing Test (also known also as female urine sniffing test (FUST)): In this anhedonia-based assay, rats are brought to a well-ventilated testing room under dim lighting. A sterile cotton-tipped applicator is attached to one wall in the home cage for 1 hour to habituate rats to this new object. For the 2 phases of the 5 minute test, rats are first exposed to a new cotton tip dipped in sterile water as a control that is removed at the end of the 5 minutes; 45 minutes later, another cotton tip previously dipped into fresh rat urine collected from females of the same strain is attached to the cage wall. Male behavior is video recorded and latency to first sniff of the cotton tip and total time spent sniffing the cotton-tipped applicator are determined. In a pilot study, a dose response curve is conducted with varying doses of LPS to select an optimal dose for inducing an anhedonic response in rats. […] SC). […] Control rats are administered saline instead of LPS and vehicle instead of lumateperone. Anhedonia is assessed using FUST (female urine sniffing test) and measuring latency to sniff the reward combined with time spent sniffing the reward. Latency sniffing water is used as a control. The results are shown in the table below (time in seconds) with outliers removed using the MAD Method: […]

CN1CCN2c3c(cccc31)[C@@H]1CN(CCCC(=O)c3ccc(F)cc3)CC[C@@H]12 [Lumateperone, 4-((6bR,10aS)-3-methyl-2,3,6b,9,10,10a-hexahydro-1H-pyrido[3′,4′: 4,5]pyrrolo[1,2,3-de]quinoxaline-8 (7H)-yl)-1-(4-fluorophenyl)-1-butanone]
Serum IL-1b concentration ([1]; control 0.7, stressed 1.65): 0.81 pg/mL | Serum TNF-alpha concentration ([1]; control 6.75, stressed 10.28): 7.67 pg/mL | Serum IL-10 concentration ([1]; control 17.18, stressed 86.78): 70.03 pg/mL | Serum IL-6 concentration ([1]; control 141.3, stressed 627.4): 137.7 pg/mL | Serum concentration Corticosterone (Corticosterone): 167.3 ng/mL | FUST Time sniffing reward (Sprague-Dawley rats; Luma 1 mg/kg IP 24 h before and 24 h after LPS, control 16.99, LPS + Vehicle 11.11): 17.38 s | FUST Latency sniffing reward (Sprague-Dawley rats; Luma 1 mg/kg IP 24 h before and 24 h after LPS, control 28.00, LPS + Vehicle 164.2): 68.13 s | FUST Latency sniffing water (Sprague-Dawley rats; control test, Luma 1 mg/kg IP before and after LPS, control 190.56, LPS + Vehicle 274.27): 207.60 s
